Like-named read-outs stand apart in the source and are kept apart here.
Test: TD-6450 phase I clinical study (SAD/MAD): pharmacokinetics
Type: in vivo, human
Settings: male, human
Description: Primary and secondary outcomes were pre-defined as follows: Safety and tolerability as a primary outcome, pharmacokinetics as a secondary outcome. Safety and tolerability were evaluated using standard measures, including adverse event (AE) monitoring, clinical laboratory tests (hematology, serum chemistry, coagulation, and urinalysis), vital signs, physical examinations, and 12-lead electrocardiograms (ECGs). […]
This study was conducted in two parts, Part A (SAD) and Part B (MAD). For the Part A, the age of enrolled subjects ranged from 20 to 60 years, with a mean age range of 32.1 to 46.2 years. Most subjects were male (73 total subjects) and most were white (55 subjects) or black (22 subjects). For Part B of the study, ages ranged from 23 to 60 years with a similar mean age across treatment groups. Most subjects were male (25 total subjects) and all were either white (18 subjects) or black (12 subjects). For each part of the study, the mean body mass index (BMI) and creatinine clearance were similar across treatment groups. […] Part A: Healthy subjects were sequentially enrolled and randomly assigned to each dose cohort (up to 10 dose-ascending cohorts were planned, including a fed arm in the food effect cohort) to receive either a single dose of TD-6450 or placebo. For each dose cohort, 8 subjects were randomized in a 3:1 ratio (6 subjects received TD-6450 and 2 subjects received placebo). The starting dose of TD-6450 was 0.5 mg with a planned maximum dose of 1000 mg. Upon review of the 500-mg cohort PK data, the decision was made to not escalate to the 1000-mg cohort because of exposure saturation at ≥ 500 mg. The following doses were administered: 0.5 mg, 1.5 mg, 5 mg, 15 mg, 30 mg, 60 mg, 120 mg, 240 mg, and 500 mg. Part B: Healthy subjects were sequentially enrolled in 3 ascending dose cohorts (TD-6450 60 mg, 120 mg, and 240 mg) and randomly assigned to receive either TD-6450 or placebo as once daily doses for 14 days. For each dose cohort, 10 subjects were randomized in a 4:1 ratio (8 subjects received TD-6450 and 2 subjects received placebo). Blinded safety, tolerability, and available PK data after each dose cohort were reviewed by the Safety Data Review Committee (SDRC) before escalation to the next dosing cohort for both part A and B. Subjects of the clinical study were randomly assigned to each cohort. Randomizations codes were assigned to the subjects. All study subjects, study investigators, and the sponsor’s staff involved in the conduct of the study were blinded to treatment assignment. The only personnel who had access to the randomization code before database lock were: The pharmacist or pharmacy staff member who prepared drug or placebo capsules for administration to the subject according to the randomization code and the bioanalytical contract laboratory that analyzed the PK samples (plasma and urine).

CNC(=O)N1C[C@@H](C)N(c2ccc(C(=O)Nc3ccc(-c4ccc(-c5c[nH]c([C@@H]6CCCN6C(=O)[C@@H](NC(=O)OC)C(C)C)n5)cc4)c(OC(F)(F)F)c3)cn2)C[C@@H]1C [TD-6450]
TD-6450 concentration (in vivo, 120 h): 29.30 ng/mL
concentration at 15 min (in vivo, TD-6450 concentration): 0 ng/mL
concentration at 2 h (in vivo, TD-6450 concentration): 116 ng/mL
concentration at 3 h (in vivo, TD-6450 concentration): 156 ng/mL
concentration at 4 h (in vivo, TD-6450 concentration): 159 ng/mL
concentration at 6 h (in vivo, TD-6450 concentration): 165 ng/mL
concentration at 12 h (in vivo, TD-6450 concentration): 108 ng/mL
concentration at 24 h (in vivo, TD-6450 concentration): 85.6 ng/mL
concentration at 48 h (in vivo, TD-6450 concentration): 60 ng/mL
concentration at 72 h (in vivo, TD-6450 concentration): 42.6 ng/mL
concentration at 96 h (in vivo, TD-6450 concentration): 27.1 ng/mL
concentration at 120 h (in vivo, TD-6450 concentration): 19.3 ng/mL
concentration at 144 h (in vivo, TD-6450 concentration): 15.1 ng/mL
concentration at 168 h (in vivo, TD-6450 concentration): 12.2 ng/mL
concentration at 312 h (in vivo, TD-6450 concentration): 2.12 ng/mL
concentration at 1 h (plasma, oral, 0.5 mg, Male subjects, SAD arm NCT02022306, Dose 0.50, 1 Hour, read-out: Concentration): 0 ng/mL
concentration at 2 h (plasma, oral, 0.5 mg, Male subjects, SAD arm NCT02022306, Dose 0.50, 2 Hours, read-out: Concentration): 0 ng/mL
concentration at 3 h (plasma, oral, 0.5 mg, Male subjects, SAD arm NCT02022306, Dose 0.50, 3 Hours, read-out: Concentration): 0 ng/mL
concentration at 15 min (plasma, oral, 0.5 mg, Male subjects, SAD arm NCT02022306, Dose 0.50, 15 Minutes, read-out: Concentration): 0 ng/mL
concentration at 24 h (plasma, oral, 0.5 mg, Male subjects, SAD arm NCT02022306, Dose 0.50, 24 Hours, read-out: Concentration): 0 ng/mL
concentration at 30 min (plasma, oral, 0.5 mg, Male subjects, SAD arm NCT02022306, Dose 0.50, 30 Minutes, read-out: Concentration): 0 ng/mL
concentration at 72 h (plasma, oral, 0.5 mg, Male subjects, SAD arm NCT02022306, Dose 0.50, 72 Hours, read-out: Concentration): 0 ng/mL
concentration at 96 h (plasma, oral, 0.5 mg, Male subjects, SAD arm NCT02022306, Dose 0.50, 96 Hours, read-out: Concentration): 0 ng/mL
concentration at 120 h (plasma, oral, 0.5 mg, Male subjects, SAD arm NCT02022306, Dose 0.50, 120 Hours, read-out: Concentration): 0 ng/mL
concentration at 144 h (plasma, oral, 0.5 mg, Male subjects, SAD arm NCT02022306, Dose 0.50, 144 Hours, read-out: Concentration): 0 ng/mL
concentration at 168 h (plasma, oral, 0.5 mg, Male subjects, SAD arm NCT02022306, Dose 0.50, 168 Hours, read-out: Concentration): 0 ng/mL
concentration at 15 min (plasma, oral, 1.5 mg, Male subjects, SAD arm NCT02022306, Dose 1.50, 15 Minutes, read-out: Concentration): 0 ng/mL
concentration at 30 min (plasma, oral, 1.5 mg, Male subjects, SAD arm NCT02022306, Dose 1.50, 30 Minutes, read-out: Concentration): 0 ng/mL
concentration at 15 min (plasma, oral, 5 mg, Male subjects, SAD arm NCT02022306, Dose 5.00, 15 Minutes, read-out: Concentration): 0 ng/mL
concentration at 15 min (plasma, oral, 15 mg, Male subjects, SAD arm NCT02022306, Dose 15.00, 15 Minutes, read-out: Concentration): 0 ng/mL
concentration at 1 h (plasma, oral, 30 mg, Male subjects, SAD arm NCT02022306, Dose 30.00, 1 Hour, read-out: Concentration (ng/ml)): 0.68 ng/mL
concentration at 2 h (plasma, oral, 30 mg, Male subjects, SAD arm NCT02022306, Dose 30.00, 2 Hours, read-out: Concentration): 9.36 ng/mL
concentration at 3 h (plasma, oral, 30 mg, Male subjects, SAD arm NCT02022306, Dose 30.00, 3 Hours, read-out: Concentration): 15.6 ng/mL
concentration at 3 h (plasma, oral, 30 mg, Male subjects, SAD arm NCT02022306, Dose 30.00, 3 Hours, read-out: Concentration (ng/ml)): 20.9 ng/mL
concentration at 4 h (plasma, oral, 30 mg, Male subjects, SAD arm NCT02022306, Dose 30.00, 4 Hours, read-out: Concentration): 18.8 ng/mL
concentration at 4 h (plasma, oral, 30 mg, Male subjects, SAD arm NCT02022306, Dose 30.00, 4 Hours, read-out: Concentration (ng/ml)): 17.9 ng/mL
concentration at 6 h (plasma, oral, 30 mg, Male subjects, SAD arm NCT02022306, Dose 30.00, 6 Hours, read-out: Concentration): 22.6 ng/mL
concentration at 8 h (plasma, oral, 30 mg, Male subjects, SAD arm NCT02022306, Dose 30.00, 8 Hours, read-out: Concentration): 26.3 ng/mL
concentration at 12 h (plasma, oral, 30 mg, Male subjects, SAD arm NCT02022306, Dose 30.00, 12 Hours, read-out: Concentration): 18.7 ng/mL
concentration at 15 min (plasma, oral, 30 mg, Male subjects, SAD arm NCT02022306, Dose 30.00, 15 Minutes, read-out: Concentration): 0 ng/mL
concentration at 15 min (plasma, oral, 30 mg, Male subjects, SAD arm NCT02022306, Dose 30.00, 15 Minutes, read-out: Concentration (ng/ml)): 0 ng/mL
concentration at 24 h (plasma, oral, 30 mg, Male subjects, SAD arm NCT02022306, Dose 30.00, 24 Hours, read-out: Concentration): 14.3 ng/mL
concentration at 30 min (plasma, oral, 30 mg, Male subjects, SAD arm NCT02022306, Dose 30.00, 30 Minutes, read-out: Concentration (ng/ml)): 0 ng/mL
concentration at 48 h (plasma, oral, 30 mg, Male subjects, SAD arm NCT02022306, Dose 30.00, 48 Hours, read-out: Concentration): 9.12 ng/mL
concentration at 72 h (plasma, oral, 30 mg, Male subjects, SAD arm NCT02022306, Dose 30.00, 72 Hours, read-out: Concentration): 6.82 ng/mL
concentration at 72 h (plasma, oral, 30 mg, Male subjects, SAD arm NCT02022306, Dose 30.00, 72 Hours, read-out: Concentration (ng/ml)): 5.73 ng/mL
concentration at 96 h (plasma, oral, 30 mg, Male subjects, SAD arm NCT02022306, Dose 30.00, 96 Hours, read-out: Concentration): 5.25 ng/mL
concentration at 96 h (plasma, oral, 30 mg, Male subjects, SAD arm NCT02022306, Dose 30.00, 96 Hours, read-out: Concentration (ng/ml)): 4.83 ng/mL
concentration at 120 h (plasma, oral, 30 mg, Male subjects, SAD arm NCT02022306, Dose 30.00, 120 Hours, read-out: Concentration): 4.26 ng/mL
concentration at 120 h (plasma, oral, 30 mg, Male subjects, SAD arm NCT02022306, Dose 30.00, 120 Hours, read-out: Concentration (ng/ml)): 3.52 ng/mL
concentration at 144 h (plasma, oral, 30 mg, Male subjects, SAD arm NCT02022306, Dose 30.00, 144 Hours, read-out: Concentration): 3.26 ng/mL
concentration at 144 h (plasma, oral, 30 mg, Male subjects, SAD arm NCT02022306, Dose 30.00, 144 Hours, read-out: Concentration (ng/ml)): 3.18 ng/mL
concentration at 168 h (plasma, oral, 30 mg, Male subjects, SAD arm NCT02022306, Dose 30.00, 168 Hours, read-out: Concentration): 2.33 ng/mL
concentration at 168 h (plasma, oral, 30 mg, Male subjects, SAD arm NCT02022306, Dose 30.00, 168 Hours, read-out: Concentration (ng/ml)): 2.29 ng/mL
concentration at 8 h (plasma, oral, 60 mg, Male subjects, SAD arm NCT02022306, Dose 60.00, 8 Hours, read-out: Concentration (ng/ml)): 110 ng/mL
concentration at 15 min (plasma, oral, 60 mg, Male subjects, SAD arm NCT02022306, Dose 60.00, 15 Minutes, read-out: Concentration (ng/ml)): 0 ng/mL
concentration at 15 min (plasma, oral, 120 mg, Male subjects, SAD arm NCT02022306, Dose 120.00, 15 Minutes, read-out: Concentration (ng/ml)): 0 ng/mL
concentration at 15 min (plasma, oral, 240 mg, Male subjects, SAD arm NCT02022306, Dose 240.00, 15 Minutes, read-out: Concentration (ng/ml)): 0 ng/mL
concentration at 15 min (plasma, oral, 500 mg, Male subjects, SAD arm NCT02022306, Dose 500.00, 15 Minutes, read-out: Concentration (ng/ml)): 0 ng/mL
concentration at 30 min (plasma, oral, 500 mg, Male subjects, SAD arm NCT02022306, Dose 500.00, 30 Minutes, read-out: Concentration (ng/ml)): 2.85 ng/mL
